Source: US20160339089A1, “IMMUNOGENIC/THERAPEUTIC GLYCOCONJUGATE COMPOSITIONS AND USES THEREOF” (OBI PHARMA, INC., priority 2014, published 2016)

Columns and labels:
Assay type in all cases: in vivo
[1] = system: Globo H-specific IgG and IgM antibodies; experiment: Globo H-specific antibody test by ELISA in plasma of immunized rats; conditions: Lewis rats, after immunization
Procedure: (§1) Different samples of the glycoconjugates (Globo H-KLH) as prepared in Example 1 were stored at 4° C., and mixed with a saponin adjuvant under a laminar flow hood. The resultant vaccine compositions were placed on ice and transported to animal facility for subsequent immunization.
(§2) The rats were immunized on day 0, 7, 14, and 21. Peripheral blood mononuclear cells (PBMC) and plasma were collected on day 0, 3, 10, 17, 24, and 31. Spleen, lymph node, and peritoneal wash were harvested on day 31.
The production of Globo H-specific antibodies in the plasma from the immunized rats was determined by ELISA assay. […] There was no response of Globo H-specific IgG and IgM antibody in rats treated with PBS only.

[2] = system: B cells and T cells (CD3T, CD4T, CD8T) in PBMC; experiment: Analysis of immune effector cell subpopulations in PBMC of immunized rats by flow cytometry; conditions: Lewis rats, s.c. immunization day 0, 7, 14, 21 with saponin adjuvant
Procedure: as §1, §2
The peripheral blood mononuclear cells (PBMCs) were isolated from the animals and then various immune effector cell subpopulations in the PBMC were identified by flow cytometry using specific antibodies against different cell markers The PBMCs, isolated from the immunized rats on day 0, 3, 10, 17, 24, and 31, were stained with different fluorescence (FITC)-conjugated antibodies and placed on ice for 30 minutes.

[3] = system: Globo H-specific IgM antibody; experiment: Immunization in mice with different Globo H:KLH ratios and antibody test by ELISA; conditions: Balb/c mice, s.c. day 0, 7, 14, 21, with saponin adjuvant, sera, compared with PBS control or between weight ratios
Procedure: Different samples of the glycoconjugates (Globo H-KLH) were stored at 4° C., and mixed with a saponin adjuvant under a laminar flow hood. The resultant vaccine compositions were placed on ice and transported to animal facility for subsequent immunization.
Balb/c mice of approximately eight weeks old were given Globo H-KLH glycoconjugate with different carbohydrate-to-protein (Globo H: KLH) ratios once every week for four weeks (Day 0, 7, 14, and 21) via subcutaneous injection. Blood samples were collected through retro-orbital or facial vein without anticoagulant pre-immune or Day 0, and three days after each vaccination (Day 10, 17 and 24). Samples were then centrifuged to separate sera and red cells. Sera were collected and stored at −20° C., which were later analyzed by ELISA. Mann-Whitney t-test was used for statistical analysis.

Substance: Fucα(1→2) Galβ(1→3) GalNAcβ(1→3) Galα(1→4) Galβ(1→4) Gluβ(1-O-ethylhydrazyl-1-carbonyl-cyclohexyl-4-(methyl-N-maleimido)-3-(thiobutyl-imidyl)-Keyhole Limpet Hemocyanin (KLH) [OBI-822]
- time at which titers of Globo H-specific IgG began to rise [1]: 10 days
- time at which titers of Globo H-specific IgG peaked [1]: 17 days
- day at which CD3T, CD4T and CD8T cells appeared [2]: 24 days
- day at which the B cell population first appeared [2]: 3 days
- expansion of B cells and T cells compared to the PBS control group ([2]; flow cytometry): significantly expanded
- Globo H-specific IgM antibody responses [3]: significantly induce
